Experiments:
[1] = tested on: human colon cancer HCT-116 cells; test: Cell invasion assayed by Transwell; type: cell-based; details: for Number of cells: invaded HCT-116 cells, control 76.0 ± 4.6; for Number of cells (HCT-116): invaded cells, control 65.0 ± 12.0
Method: Inhibition of invasion of human colon cancer HCT-116 cells and human lung cancer A549 cells by deuterium oxide in combination with 5-fluorouracil or gemcitabine (by the Transwell method)
(§1) 1.1. Warm water at 37° C. to 40° C. was prepared, a cryogenic vial was taken out of liquid nitrogen and immediately put into the 37° C.-40° C. warm water, followed by vigorous shaking until the cryogenic liquid was completely thawed; 1.2. The suspension of cryogenic cells was transferred to a centrifugal tube, 5 ml culture medium was added thereto, and the cells were well mixed in the medium by gentle pipetting; 1.3. The cell suspension was centrifuged at 800 to 1,000 rpm for 5 min, and the supernatant was discarded; 1.4. A complete culture medium was added to the cell pellet which was well mixed by gentle pipetting, the cell suspension was transferred to a culture flask, and the cells were cultured by supplementing culture medium.
1. […] After incubation of cells with the test drugs for 24 hours, serum was removed, and the cells were incubated under starvation with an incomplete culture medium for 24 hours; 3. Matrigel was placed at 4° C. in advance to thaw overnight; 4. Thawed Matrigel was 1:1 diluted with the incomplete culture medium, 30 μl diluted Matrigel was added to the upper compartment of Transwell and incubated at 37° C. for 120 min to gel the Matrigel; 5. Cells from different groups were digested, counted, and then adjusted to a density of 1×10^5 cells/ml with the incomplete culture medium, 100 μl cell suspension was added to the upper compartment (small compartment) of Transwell, and 500 μl medium containing 20% FBS was added to the lower compartment of Transwell; 6. A 24-well cell culture plate was placed in an incubator at 37° C. and 5% CO2 to culture the cells for 24 hours; 7. Cell counting: cells in the Matrigel and the upper compartment were wiped off with a cotton swab, the Transwell was removed, followed by inversion and air drying, 500 μl medium containing 0.1% crystal violet was added to the 24-well plate, the small compartment was placed in the medium to allow the membrane to be immersed in the dye, removed after holding at 37° C. for 30 min, washed with PBS, and photographed in 3 fields along the diameter (200× magnification) for cell counting. 8. The assay was repeated one more time.

[2] = tested on: human colon cancer HCT-116 cells; test: Cell cycle by PI single staining (flow cytometry); type: cell-based; details: 72 hours
Method: Effect of deuterium oxide on the cell cycle of human lung cancer A549 cells and human colon cancer HCT-116 cells
A KGA511 Cell cycle assay kit was provided by NANJING KEYGEN BIOTECH. CO., LTD.
The flow cytometer was FACS Calibur provided by Becton-Dickinson, US.
as §1, with “vial of cells” for “vial”
2.1. The original culture medium was removed by pipetting when the cell coverage reached 80% to 90% in the culture bottle; 2.2. A suitable amount of trypsin (0.25%) was added to digest for 1 to 2 min; 2.3. When all the cells became round, an equal volume of culture medium containing serum was added to cease the digestion; 2.4. The cells were blown by pipetting to suspend, then drawn into a 15 ml centrifugal tube, and centrifuged at 1000 rpm for 5 min; 2.5. The supernatant was discarded, and the cells were re-suspended in 1 to 2 ml culture medium and transferred to a culture bottle for further culturing.
1. Cells growing in the exponential phase were digested and inoculated to a 6-well plate; on the next day, after the cells attached to the wall, cell culture media containing corresponding test drugs were added according to different groups, and a negative control group was also set; 2. After treatment with test drugs for 72 hours, cells were digested with 0.25% pancreatin (EDTA-free) and collected; 3. The cells were washed with PBS once (centrifuged at 2,000 rpm for 5 min), and 5×10^5 cells were collected; 4. The prepared suspension of individual cells was fixed with 70% (v/v) ethanol for 2 hours (or overnight), and stored at 4° C.; before staining, the fixing solution was washed away with PBS (if necessary, the cell suspension was filtered once through a 200-mesh screen); 5. 100 μl RNase A was added, and the cells were water-bathed at 37° C. for 30 min; 6. 400 μl PI was added and well mixed for staining, and the cells were kept at 4° C. in darkness for 30 min; 7. In a detection apparatus, red fluorescence with an excitation wavelength of 488 nm was recorded.

dogs = details: exogenous deuterium oxide; cited from earlier work

Row | Compound | Number of cells ([1]; 5-FU 0.195 ug/ml in NS) | Number of cells ([1]; 5-FU 0.39 ug/ml in NS) | Number of cells ([1]; 5-FU 0.78 ug/ml in NS) | Number of cells ([1]; 5-FU 1.56 ug/ml in NS) | Number of cells ([1]; 5-FU 3.125 ug/ml in NS) | Number of cells ([1]; 5-FU 6.25 ug/ml in NS) | Number of cells ([1]; 5-FU 12.5 ug/ml in NS) | G1 Phase ([2]; 5-FU 12.5 ug/ml in NS) [%] | G2 Phase ([2]; 5-FU 12.5 ug/ml in NS) [%] | S Phase ([2]; 5-FU 12.5 ug/ml in NS) [%] | Number of cells (HCT-116) ([1]; deuterium oxide 1.8% (v/v)) | Number of cells (HCT-116) ([1]; deuterium oxide 7.5% (v/v)) | Number of cells (HCT-116) ([1]; deuterium oxide 15% (v/v)) | Number of cells (HCT-116) ([1]; deuterium oxide 30% (v/v)) | Number of cells (HCT-116) ([1]; deuterium oxide […] (v/v)) | G2 Phase ([2]; deuterium oxide 30% v/v, control 8.06 ± 1.89) [%] | S Phase ([2]; deuterium oxide 30% v/v, control 9.40 ± 1.83) [%] | G1 Phase ([2]; deuterium oxide 30% v/v, control 82.53 ± 1.76) [%] | concentration in the body that causes a toxic effect (dogs) [%]
1 | O=c1[nH]cc(F)c(=O)[nH]1 [Example 5-FU, 5-fluorouracil] | 66.0 ± 2.6 | 47.3 ± 4.0 | 31.3 ± 1.5 | 23.0 ± 4.6 | 12.0 ± 2.0 | 10.7 ± 1.5 | 6.3 ± 0.6 | 32.69 ± 8.66 | 41.24 ± 2.97 | 26.07 ± 11.32 |  |  |  |  |  |  |  |  | 
2 | [2H]O[2H] [Deuterium oxide] |  |  |  |  |  |  |  |  |  |  | 29.3 ± 5.1 | 3.7 ± 0.6 | 3.0 ± 1.0 | 1.70 ± 0.6 | 16.3 ± 3.2 | 4.21 ± 0.95 | 6.61 ± 1.41 | 89.19 ± 3.81 | 30
